Measurements from US9636314B2, “Medicament for treatment of non-insulin dependent diabetes mellitus, hypertension and/or metabolic syndrome” (Stevia Limited, priority 2001, dated 2017).
“Also recorded” adds a separate entry of the source.

How the values were obtained:
[1] = system: Salmonella typhirmurium strains; conditions: Salmonella typhimurium TA 98 and TA 100; cited from earlier work
rats [2] = conditions: rat, in vivo; cited from earlier work
mice = conditions: mouse, in vivo; cited from earlier work
isolated mouse islets = test: glucose-stimulated insulin secretion from isolated mouse islets; type: cell-based; conditions: for maximal stimulatory dose / glucose-stimulated insulin secretion: NMRI mouse islets; for glucose-stimulated insulin secretion: 16.7 mmol/l, 10^−9-10^−3 mol/l
Protocol: Islet from 6-10 NMRI mice were isolated and incubated in the presence of 16.7 mmol/l and 10^−9-10^−3 mol/l stevioside or 10^−9-10^−3 mol/l steviol. The results of these tests are illustrated in FIGS. 4a and 4b where each column represents mean±SEM from 24 incubations of single islets. Black bars in FIG. 4a indicate that stevioside is present and hatched bars indicate that stevioside is absent. Black bars in FIG. 4b indicate that steviol is present and hatched bars indicate that steviol is absent. The influence of the maximal stimulatory doses of 10^−3 mol/l stevioside and 10^−6 mol/l steviol was studied in NMRI mouse islets over a range between 0 and 16.7 mmol/l glucose. […] Black bars in FIG. 7a indicate that stevioside is present and hatched bars indicate that stevioside is absent. Black bars in FIG. 7b indicate that steviol is present and hatched bars indicate that steviol is absent.

[3] = six in vitro and one in vivo mutagenicity assays; cited from earlier work
hamsters [4] = conditions: cited from earlier work
rats [5] = test: intravenous administration to rats (earlier work of the inventors); type: in vivo, rat; conditions: i.v.
GK rats [6] = test: plasma glucagon during glucose tolerance test in GK rats; type: in vivo, rat; conditions: stevioside 0.2 g/kg i.v. bolus, glucose 2.0 g/kg
Protocol: During a glucose tolerance test, an intravenous bolus of stevioside of 0.2 g/kg body weight was injected in GK rats (the (2)-(2) serie (n=6)). GK rats receiving 0.9% saline intravenously served as controls (the O-O serie (n=6)). Glucose 2.0 g/kg body weight was administered as a bolus at timepoint 0 min. The plasma glucagon responses are shown as mean±SEM in FIGS. 5a (control) and 5b (GK). The plasma glucagon was suppressed in the stevioside treated GK rat.

[7] = rats; cited from earlier work
GK rats [8] = test: blood pressure during 6 weeks treatment of GK rats with stevioside; type: in vivo, rat; conditions: 0.025 g/kg/24 h in drinking water, detectable after 2 weeks, then stable
Protocol: GK rats were treated with stevioside 0.025 g/kg body weight/24 h for 6 weeks. Stevioside was administered in the drinking water. GK rats receiving drinking water with 0.111 g D-glucose/kg body weight/24 h served as controls. Systolic (FIG. 6a, control: O-O series, stevioside-treated: (2)-(2) series) and diastolic (FIG. 6b, control: O-O series, stevioside-treated: (2)-(2) series) blood pressures were measured on the tail.

F344 rats = conditions: cited from earlier work
[9] = system: type II diabetic patients; test: acute paired cross-over test meal study with oral stevioside; type: in vivo, human; conditions: 1 g stevioside orally with standard meal
From the text: Twelve type II diabetic patients (4 female/8 males) with a mean age of 65.8±1.6 years, a diabetes duration of 6.0±1.3 years, a mean body mass index of 28.5±1.0, and a mean glycated hemoglobin HbA1c of 7.4±0.4 percent were included in the study. The experiment was an acute, paired, cross-over study in which two test meals were served during the experiments (A: Standard meal supplemented with 1 g of stevioside given orally; B: Standard meal given together with 1 g of gelatine (placebo) given orally. The total energy content of the test meals was 1725 kJ (protein 16 E %, fat 30 E %, carbohydrate 54 E %). Blood samples were drawn from an antecubital vein 30 minutes before and 240 minutes after ingestion of the test meal. The arterial blood pressure was continuously monitored during the experiment. Students paired t-test was used for comparing the effects of stevioside with placebo on the parameters measured. Data are given as mean±SEM.

[10] = system: isolated normal pancreatic rat islets; conditions: 7 mmol/l D-glucose; stevioside 1.0 mmol/l; cited from earlier work
[11] = isolated perfused rat liver; cited from earlier work
[12] = system: spontaneously hypertensive rats; conditions: cited from earlier work
GK rats [13] = test: i.v. glucose tolerance test with stevioside in GK rats (plasma glucose and insulin); type: in vivo, rat; conditions: 2.0 g glucose/kg + 0.2 g stevioside/kg i.v.
Protocol: In the following examples, the type II diabetic Goto-Kakizaki (GK) rats originated from Takeda Chemical Ind., Tokyo, Japan and were bred locally. As examples of the effects of a compound including the chemical formulas II, stevioside was tested on normal Wistar rats and on GK rats. 2.0 g glucose/kg body weight and 0.2 g stevioside/kg body weight were dissolved in 0.9% saline and infused intravenously. The plasma glucose and insulin levels were measured over a period of 2 hours. The results are shown in FIGS. 2a, 2b, 3a and 3b, were the O-O series (n=6 for Wistar and n=14 for GK) illustrate glucose infused alone and the (2)-(2) series (n=6 for Wistar and n=12 for GK) illustrate the combined glucose and stevioside infusion. Data are given as mean±SEM.

[14] = stevioside infusion at normal blood glucose; type: in vivo; conditions: bolus or constant intravenous infusion
hamsters [15] = conditions: doses as high as 2.5 g/kg body weight/day; cited from earlier work
GK-rats = test: four-week test diets (stevioside and/or soy) in Goto-Kakizaki rats with glucose tolerance test; type: in vivo, rat; conditions: 4 weeks, p<0.05
Protocol: Four test diets (A: Standard carbohydrate rich laboratory animal diet (Altromin); n=12 (Alt). B: Altromin supplemented with stevioside (Altromin+Stevioside); n=12; (Alt+Ste). C: Soy plus 20% Altromin; n=12; (Soy). D: Soy plus 20% Altromin plus stevioside; n=12; (Soy+Ste)) were administered for four weeks to four groups of adult rats. Each experimental group consisted of twelve female Goto-Kakizaki wish an age of 9 weeks. The rats received the stevioside (0.025 g/kg body weight/day) with the drinking water. […] Plasma concentrations of glucose, insulin, and glucagon were measured during the glucose tolerance test. Immediately before the glucose tolerance test fasting levels of triglycerides and cholesterol were determined. Concomitantly, the systolic blood pressure was measured using a tail cuff. (Plasma glucose was measured using MPR 3, 166 391, Glucose/GOD-PAP Method from Boehringer Mannheim) (Plasma insulin was measured using Sensitive Rat Insulin RIA, Cat #SRI-13K from Linco) (Plasma glucagon was measured using Glucagon RIA. Cat #GL-32K from Linco) (Blood pressure was measured using TSE Non-Invasive Blood Pressure Monitoring System from Technical Scientific Equipment GmbK) (Plasma cholesterol was measured GOD-PAP from Roche and triglycerides was measured using GHOD-PAP from Roche)

## C=C1C[C@@]23CC[C@H]4[C@@](C)(CCC[C@@]4(C)C(=O)O)[C@@H]2CC[C@]1(O)C3 [steviol]
[1]
  mutagenic effect: no mutagenic effect
Rats [2]
  LD50: higher than 15 g/kg body weight
mice
  LD50: higher than 15 g/kg body weight
Isolated mouse islets
  stimulation of insulin secretion compared with stevioside: to a greater extent
  maximal stimulatory dose: 10^−6 mol/l
  glucose-stimulated insulin secretion: capable of potentiating glucose-stimulated insulin secretion
[3]
  mutagenicity: dose-related positive responses in some mutagenicity test
Hamsters [4]; hamster, in vivo
  LD50: 5-6 g/kg body weight
Hamsters [4]; hamsters, correlated to increases in blood urea nitrogen and creatinine
  finding that accompanied lethality: degeneration of the proximal tubular cells
Rats [5]
  effect when administered intravenously to rats: anti-hyperglycemic, glucagonostatic and insulinotropic effect

## C=C1C[C@@]23CC[C@H]4[C@@](C)(CCC[C@@]4(C)C(=O)O[C@@H]4O[C@H](CO)[C@@H](O)[C@H](O)[C@H]4O)[C@@H]2CC[C@]1(O[C@@H]1O[C@H](CO)[C@@H](O)[C@H](O)[C@H]1O[C@@H]1O[C@H](CO)[C@@H](O)[C@H](O)[C@H]1O)C3 [stevioside]
GK rats [6]
  plasma glucagon: suppressed
[1]
  mutagenic effect: no mutagenic effect
[7]
  route of excretion: excreted by the urine
GK rats [8]
  decrease in the blood pressure (systolic and diastolic, tail): 10-15%
F344 rats
  carcinogenicity: not carcinogenic
[9]; mean±SEM, p<0.004
  reduction of the postprandial blood glucose response compared to placebo: 18±5%
[9]; mean±SEM, p<0.02 vs placebo
  absolute IAUC of postprandial blood glucose: 522±64 mmol/l×240 min
[9]; mean±SEM, p<0.045 vs placebo
  postprandial glucagon like peptide-1 (GLP-1) levels: 1529±296
[9]; mean±SEM, p=0.02 vs placebo
  postprandial glucagon levels: 281±33
[9]; p=0.09, not statistically significant
  insulin response (IAUC): tended to stimulate the insulin response
[10]
  insulin output: significant increase in insulin output
[11]
  metabolism: not metabolised
[12]; 200 mg/kg intravenously (maximum hypotensive effect)
  fall in the systolic blood pressure: only small
[12]; intravenous stevioside
  heart rate: Neither the heart rate nor the plasma catecholamines were significantly changed
  plasma catecholamines: Neither the heart rate nor the plasma catecholamines were significantly changed
GK rats [13]
  time at which a significant decrease of plasma glucose was observed: 30 min
GK rats [13]; 2 hours
  blood glucose response to intravenous glucose: inhibited blood glucose responses; also recorded: diminished glucose response
GK rats [13]; compared to the Wistar rat
  insulin response: pronounced increase in the insulin response
Isolated mouse islets
  maximal stimulatory dose: 10^−3 mol/l
  glucose-stimulated insulin secretion: capable of potentiating glucose-stimulated insulin secretion
[14]
  hypoglycemia: did not cause any hypoglycemia
[3]
  mutagenicity: not mutagenic
Rats [5]
  effect when administered intravenously to rats: anti-hyperglycemic, glucagonostatic and insulinotropic effect
Hamsters [15]
  effect on growth or reproduction: no effect on growth or reproduction
GK-rats
  suppression of the systolic blood pressure (Δ), stevioside in combination with Altromin: −28 mmHg
  suppression of the systolic blood pressure (Δ), stevioside in combination with soy: −21 mmHg
